In patent US6645918B1, “N-([1,2,4]triazoloazinyl)thiophenesulfonamide compounds and their use as herbicides” (Dow AgroSciences LLC, priority 2000, dated 2003):

Key:
Assay type in all cases: in vivo
[1] = tested on: giant foxtail (Setaria faberi); experiment: Postemergence herbicidal activity, giant foxtail; details: foliar spray, visual after 2 weeks, 0 no injury, 100 complete kill
Experimental: (§1) Seeds of the desired test plant species were planted in Grace-Sierra MetroMix® 306 planting mixture, which typically has a pH of 6.0 to 6.8 and an organic matter content of about 30 percent, in plastic pots with a surface area of 64 square centimeters. When required to ensure good germination and healthy plants, a fungicide treatment and/or other chemical or physical treatment was applied. The plants were grown for 7-21 days in a greenhouse with an approximately 15 hr photoperiod which was maintained at about 23-29° C. during the day and 22-28° C. during the night. Nutrients and water were added on a regular basis and supplemental lighting was provided with overhead metal halide 1000 Watt lamps as necessary. The plants were employed for testing when they reached the first or second true leaf stage. A weighed amount of each test compound, determined by the highest rate to be tested, was placed in a 20 mL glass vial and was dissolved in 4 mL of a 97:3 v/v (volume/volume) mixture of acetone and dimethyl sulfoxide to obtain concentrated stock solutions. […] The concentrated stock solutions obtained were diluted with an aqueous mixture containing acetone, water, iso-propyl alcohol, dimethyl sulfoxide, Atplus 411F crop oil concentrate, and Triton X-155 surfactant (methylenebisdiamyl phenoxy polyethoxy ethanol) in a 48.5:39:10:1.5:1.0:0.02 v/v ratio to obtain spray solutions of known concentration. The solutions containing the highest concentration to be tested were prepared by diluting 2 mL aliquots of the stock solution with 13 mL of the mixture and lower concentrations were prepared by dilution of appropriate smaller portions of the stock solution. Approximately 1.5 mL aliquots of each solution of known concentration were sprayed evenly onto each of the test plant pots using a DeVilbiss atomizer driven by compressed air pressure of 2 to 4 psi (140 to 280 kilopascals) to obtain thorough coverage of each plant. Control plants were sprayed in the same manner with the aqueous mixture. In this test an application rate of 1 ppm results in the application of approximately 1 g/ha. The treated plants and control plants were placed in a greenhouse as described above and watered by sub-irrigation to prevent wash-off of the test compounds. After 2 weeks the condition of the test plants as compared with that of the untreated plants was determined visually and scored on a scale of 0 to 100 percent where 0 corresponds to no injury and 100 corresponds to complete kill.

wild oats (Avena fatua) [2] = experiment: Postemergence herbicidal activity, wild oats; details: foliar spray, visual after 2 weeks, 0 no injury, 100 complete kill
Experimental: as §1

[3] = tested on: wild poinsettia (Euphorbia heterophylla); experiment: Preemergence herbicidal activity, wild poinsettia; details: 8.8 g/Ha, soil spray, visual after 3 weeks; 0 no injury, 100 complete kill or no germination
Experimental: (§2) The soil matrix was contained in plastic pots with a surface area of 161 square centimeters. When required to ensure good germination and healthy plants, a fungicide treatment and/or other chemical or physical treatment was applied. A weighed amount, determined by the highest rate to be tested, of each test compound was placed in a 20 mL glass vial and was dissolved in 8 mL of a 97:3 v/v (volume/volume) mixture of acetone and dimethyl sulfoxide to obtain concentrated stock solutions. […] The stock solutions obtained were diluted with a 99.9:0.1 mixture of water and Tween® 155 surfactant (ethoxylated sorbitan fatty acid ester) to obtain application solutions of known concentration. The solutions containing the highest concentration to be tested were prepared by diluting 4 mL aliquots of the stock solution with 8.5 mL of the mixture and lower concentrations were prepared by dilution of appropriate smaller portions of the stock solution. A 2.5 mL aliquot of each solution of known concentration was sprayed evenly onto the soil of each seeded pot using a Cornwall 5.0 mL glass syringe fitted with a TeeJet TN-3 hollow cone nozzle to obtain thorough coverage of the soil in each pot. Control pots were sprayed in the same manner with the aqueous mixture. A highest application rate of 4.48 kg/ha is achieved when 50 mg of test compound is employed. The treated pots and control pots were placed in a greenhouse with an approximately 15 hr photoperiod which was maintained at about 23-29° C. during the day and 22-28° C. during the night. Nutrients and water were added on a regular basis and supplemental lighting was provided with overhead metal halide 1000 Watt lamps as necessary. The water was added by top-irrigation. After 3 weeks the condition of the test plants that germinated and grew as compared with that of the untreated plants that germinated and grew was determined visually and scored on a scale of 0 to 100 percent where 0 corresponds to no injury and 100 corresponds to complete kill or no germination.

[4] = tested on: Rox orange sorghum (Sorghum bicolor); experiment: Postemergence herbicidal activity, Rox orange sorghum; details: foliar spray, visual after 2 weeks, 0 no injury, 100 complete kill
Experimental: as §1

[5] = tested on: velvetleaf (Abutilion theophrasti); experiment: Preemergence herbicidal activity, velvetleaf; details: 8.8 g/Ha, soil spray, visual after 3 weeks; 0 no injury, 100 complete kill or no germination
Experimental: as §2

viola (Viola tricolor) = experiment: Postemergence herbicidal activity, viola; details: foliar spray, visual after 2 weeks, 0 no injury, 100 complete kill
Experimental: as §1

[6] = tested on: morningglory (Ipomoea hederacea); experiment: Postemergence herbicidal activity, morningglory; details: foliar spray, visual after 2 weeks, 0 no injury, 100 complete kill
Experimental: as §1

[7] = tested on: morningglory (Ipomoea hederacea); experiment: Preemergence herbicidal activity, morningglory; details: 8.8 g/Ha, soil spray, visual after 3 weeks; 0 no injury, 100 complete kill or no germination
Experimental: as §2

[8] = tested on: blackgrass (Alopecurus myosuroides); experiment: Postemergence herbicidal activity, blackgrass; details: foliar spray, visual after 2 weeks, 0 no injury, 100 complete kill
Experimental: as §1

[9] = tested on: pigweed (Amaranthus retroflexus); experiment: Postemergence herbicidal activity, pigweed; details: foliar spray, visual after 2 weeks, 0 no injury, 100 complete kill
Experimental: as §1

[10] = tested on: Rox orange sorghum (Sorghum bicolor); experiment: Preemergence herbicidal activity, Rox orange sorghum; details: 8.8 g/Ha, soil spray, visual after 3 weeks; 0 no injury, 100 complete kill or no germination
Experimental: as §2

[11] = tested on: blackgrass (Alopecurus myosuroides); experiment: Preemergence herbicidal activity, blackgrass; details: 8.8 g/Ha, soil spray, visual after 3 weeks; 0 no injury, 100 complete kill or no germination
Experimental: as §2

[12] = tested on: barnyardgrass (Echinochloa crus-galli); experiment: Preemergence herbicidal activity, barnyardgrass; details: 8.8 g/Ha, soil spray, visual after 3 weeks; 0 no injury, 100 complete kill or no germination
Experimental: as §2

[13] = tested on: velvetleaf (Abutilion theophrasti); experiment: Postemergence herbicidal activity, velvetleaf; details: foliar spray, visual after 2 weeks, 0 no injury, 100 complete kill
Experimental: as §1

[14] = tested on: pigweed (Amaranthus retroflexus); experiment: Preemergence herbicidal activity, pigweed; details: 8.8 g/Ha, soil spray, visual after 3 weeks; 0 no injury, 100 complete kill or no germination
Experimental: as §2

[15] = tested on: crabgrass (Digitaria sanguinalis); experiment: Preemergence herbicidal activity, crabgrass; details: 8.8 g/Ha, soil spray, visual after 3 weeks; 0 no injury, 100 complete kill or no germination
Experimental: as §2

[16] = tested on: cocklebur (Xanthium strumarium); experiment: Postemergence herbicidal activity, cocklebur; details: foliar spray, visual after 2 weeks, 0 no injury, 100 complete kill
Experimental: as §1

[17] = tested on: lambsquarters (Chenopodium album); experiment: Preemergence herbicidal activity, lambsquarters; details: 8.8 g/Ha, soil spray, visual after 3 weeks; 0 no injury, 100 complete kill or no germination
Experimental: as §2

[18] = tested on: cocklebur (Xanthium strumarium); experiment: Preemergence herbicidal activity, cocklebur; details: 8.8 g/Ha, soil spray, visual after 3 weeks; 0 no injury, 100 complete kill or no germination
Experimental: as §2

[19] = tested on: wild buckwheat (Polygonum convolvulus); experiment: Postemergence herbicidal activity, wild buckwheat; details: foliar spray, visual after 2 weeks, 0 no injury, 100 complete kill
Experimental: as §1

[20] = tested on: chickweed (Stellaria media); experiment: Postemergence herbicidal activity, chickweed; details: foliar spray, visual after 2 weeks, 0 no injury, 100 complete kill
Experimental: as §1

[21] = tested on: giant foxtail (Setaria faberi); experiment: Preemergence herbicidal activity, giant foxtail; details: 8.8 g/Ha, soil spray, visual after 3 weeks; 0 no injury, 100 complete kill or no germination
Experimental: as §2

[22] = tested on: lambsquarters (Chenopodium album); experiment: Postemergence herbicidal activity, lambsquarters; details: foliar spray, visual after 2 weeks, 0 no injury, 100 complete kill
Experimental: as §1

wild oats (Avena fatua) [23] = experiment: Preemergence herbicidal activity, wild oats; details: 8.8 g/Ha, soil spray, visual after 3 weeks; 0 no injury, 100 complete kill or no germination
Experimental: as §2

Row | SMILES | SETFA postemergence injury score 0-100 ([1]; 7.8 ppm) | AVEFA postemergence injury score 0-100 (wild oats (Avena fatua) [2]; 7.8 ppm) | EPHHL preemergence injury score 0-100 [3] | SORBI postemergence injury score 0-100 ([4]; 7.8 ppm) | ABUTH preemergence injury score 0-100 [5] | VIOTR postemergence injury score 0-100 (viola (Viola tricolor); 7.8 ppm) | IPOHE postemergence injury score 0-100 ([6]; 7.8 ppm) | IPOHE preemergence injury score 0-100 [7] | ALOMY postemergence injury score 0-100 ([8]; 7.8 ppm) | AMARE postemergence injury score 0-100 ([9]; 7.8 ppm) | SORBI preemergence injury score 0-100 [10] | ALOMY preemergence injury score 0-100 [11] | ECHCG preemergence injury score 0-100 [12] | ABUTH postemergence injury score 0-100 ([13]; 7.8 ppm) | AMARE preemergence injury score 0-100 [14] | DIGSA preemergence injury score 0-100 [15] | XANST postemergence injury score 0-100 ([16]; 7.8 ppm) | CHEAL preemergence injury score 0-100 [17] | SETFA preemergence injury score 0-100 [21] | AVEFA preemergence injury score 0-100 (wild oats (Avena fatua) [23]) | also measured
1 | COc1cc(OC)n2nc(NS(=O)(=O)c3c(OC)csc3C)nc2n1 [Compound 24] | 90% | 70% | 80% | 100% | 98% | 70% | 80% | 98% | 80% | 100% | 100% | 90% | 40% | 70% | 90% | 98% | 90% | 100% | 100% | 70% | XANST preemergence injury score 0-100 [18]: 70%; POLCO postemergence injury score 0-100 ([19]; 7.8 ppm): 70%; STEME postemergence injury score 0-100 ([20]; 7.8 ppm): 80%; CHEAL postemergence injury score 0-100 ([22]; 7.8 ppm): 85%
2 | COc1csc(Cl)c1S(=O)(=O)Nc1nc2c(C)cnc(OC)n2n1 [Compound 21] |  |  | 60% |  | 80% |  |  | 40% |  |  | 70% | 70% | 30% |  | 60% | 40% |  | 70% | 70% | 70% | SETFA postemergence injury score 0-100 ([1]; 62.5 ppm): 50%; AVEFA postemergence injury score 0-100 (wild oats (Avena fatua) [2]; 62.5 ppm): 75%; SORBI postemergence injury score 0-100 ([4]; 62.5 ppm): 100%; VIOTR postemergence injury score 0-100 (viola (Viola tricolor); 62.5 ppm): 90%; IPOHE postemergence injury score 0-100 ([6]; 62.5 ppm): 80%; ALOMY postemergence injury score 0-100 ([8]; 62.5 ppm): 30%; AMARE postemergence injury score 0-100 ([9]; 62.5 ppm): 100%; ABUTH postemergence injury score 0-100 ([13]; 62.5 ppm): 100%; XANST postemergence injury score 0-100 ([16]; 62.5 ppm): 90%; XANST preemergence injury score 0-100 [18]: 50%; POLCO postemergence injury score 0-100 ([19]; 62.5 ppm): 100%; STEME postemergence injury score 0-100 ([20]; 62.5 ppm): 100%; CHEAL postemergence injury score 0-100 ([22]; 62.5 ppm): 100%
3 | COc1ccsc1S(=O)(=O)Nc1nc2c(Cl)cnc(OC)n2n1 [Compound 2] | 98% | 90% | 90% | 98% | 75% | 95% | 85% | 80% | 70% | 98% | 100% | 95% | 75% | 95% | 95% | 100% | 60% | 98% | 100% | 100% | POLCO postemergence injury score 0-100 ([19]; 7.8 ppm): 90%; STEME postemergence injury score 0-100 ([20]; 7.8 ppm): 98%; CHEAL postemergence injury score 0-100 ([22]; 7.8 ppm): 90%
